Entries after “also recorded” stand apart in the source; their conditions may differ.
Legend:
RAW264.7 cells [1] = test: IL-12 production in LPS-stimulated RAW264.7 cells (IL-12 ELISA); format: cell-based, murine; settings: 100 ng/mL LPS, 21 hours
Procedure: RAW264.7 cells were cultured with 100 ng/mL of LPS in presence or absence of compounds for 21 hours in a humidified atmosphere of 95% air-5% carbon dioxide at 37° C. IL-12 concentration in the culture medium was measured using the IL-12 ELISA according to the manufacturer (BD Biosciences) recommendations. […] An in vitro IL-12 production assay was used for screening potential inhibitors of osteoclastogenesis.

[2] = test system: ovariectomized (OVX) rats; test: Ovariectomized (OVX) rat model of osteoporosis; format: in vivo, Sprague Dawley rats
Excerpt: Although in comparison to humans, the skeletal mass of rats remains stable for a protracted period during their lifespan, rats can be ovariectomized to make them sex-hormone deficient, and to stimulate the accelerated loss of bone that occurs in women following menopause. Ovariectomy induces bone loss in the rat and postmenopausal bone loss share many similar characteristics. These include: increased rate of bone turnover with resorption exceeding formation; an initial rapid phase of bone loss followed by a much slower phase; greater loss of cancellous than cortical bone; decreased intestinal absorption of calcium; some protection against bone loss by obesity; and similar skeletal response to therapy with estrogen, tamoxifen, bisphosphonates, parathyroid hormone, calcitonin and exercise. These wide-ranging similarities are strong evidence that the ovariectomized rat bone loss model is suitable for studying problems that are relevant to postmenopausal bone loss. Sprague Dawley rats (250 g) were ovariectomized (OVX) at day 0. Rats were treated by oral gavage with Compound I (200 mg/kg) from day 14 to day 68. Evaluation of different parameters (body weight, calcium loss, osteoclast markers (RANKL and TRAP mRNA expression), collagen content and histology) was performed at day 68.

RAW264.7 cells [3] = test: LPS-induced osteoclastogenesis in RAW264.7 cells, TRAP staining; format: cell-based, murine; settings: RAW264.7 cells differentiated with LPS (1 ug/ml), days 3-5 (FIG. 1)
Excerpt: RAW264.7 cells are precursors of osteoclasts and can be differentiated by several factors including Receptor activator of NF-κB ligand (RANKL) or Lipopolysaccharide (LPS). Osteoclasts are characterized by high expression or tartrate resistant acid phosphatase (TRACP) and Matrix Metalloproteinase-9 (MMP-9) which can be used as markers for osteoclasts. […] The effect of selected compounds on TRAP (osteoclast marker) and IL-12 was undertaken in RAW264.7 cells, a murine osteoclast precursor cell line, in comparison with capric acid, as a positive control for reduction of osteoclastogenesis (Park et al. (2011) PLOS One Volume 6, Issue 11, 8 pages). RAW264.7 cells were differentiated by the incubation with LPS (1 ug/ml) in presence or not of capric acid or Compound I. On days 3-5, osteoclast formation was evaluated using tartrate-resistant acid phosphatase (TRAP) staining.

db/db mice = test: Serum adiponectin level in uninephrectomized diabetic obese (db/db) mice; format: in vivo; settings: uninephrectomized db/db mice treated for 113 days (FIG. 9)
Procedure: To determine if selected compounds of this invention can affect serum adiponectin level, a model of diabetes type II/obesity was used. Briefly, db/db mice (6 weeks-old were uninephrectomized and treated with Compound XIV for 113 days (structure is shown in Table 1 hereinbefore). Serum adiponectin levels were determined with a mouse adiponectin enzyme-linked immunosorbant assay kit (R&D Systems).

RAW264.7 cells [4] = settings: cited from earlier work

Q: Which IL12 (RAW264.7 cells [1]; compound concentration 0.25 mM) does the source give for `CCCCCc1cccc(C(F)C(=O)[O-])c1.[Na+]` (racemic) [Compound XIII, Sodium Salt of (RS)-2-Fluoro-2-(3-pentylphenyl)acetic Acid] here?
A: 17.6 pg/mL

Q: With `CCCCCc1cccc(CC(=O)[O-])c1.[Na+]` [Compound I, Sodium Salt of (3-pentylphenyl)acetic Acid] as the compound, how does the “body weight / ovariectomized-induced obesity” value ([2]; oral gavage 200 mg/kg day 14 to day 68 (FIG. 3)) read?
A: reduced ovariectomized-induced obesity

Q: And the “calcium loss in urine” value ([2]; oral gavage 200 mg/kg, day 28 to day 56 (FIG. 4))?
A: reduced significantly the calcium loss

Q: And the “acid phosphatase activity in serum” value ([2]; oral gavage 200 mg/kg, day 28 to day 56 (FIG. 5))?
A: reduces the acid phosphatase activity

Q: What about the “ratio of mRNA expression of RANKL/OPG in rat tibia” value ([2]; oral gavage 200 mg/kg, day 68 (FIG. 6)) of the same compound?
A: decreased

Q: And the “collagen content in the metaphyse of the femur” value ([2]; oral gavage 200 mg/kg, day 68 (FIG. 7))?
A: increased the collagen content

Q: What about the “bone loss in the metaphysis of the femur, histology” value ([2]; oral gavage 200 mg/kg, day 68 (FIG. 8)) of the same compound?
A: reduced bone loss

Q: What about the IL12 (RAW264.7 cells [1]; compound concentration 0.50 mM) of the same compound?
A: 54.34 pg/mL

Q: What about the “IL-12 production (in words)” value (RAW264.7 cells [1]; various concentrations (FIG. 2, Table 2)) of the same compound?
A: strong induction of IL-12 production

Q: And the “osteoclast formation, TRAP staining” value (RAW264.7 cells [3])?
A: no TRAP cells are observable

Q: Which IL12 (RAW264.7 cells [1]; compound concentration 0.50 mM) does the source give for `CCCCCc1cccc(CCC(=O)[O-])c1.[Na+]` [Compound II, Sodium Salt of 3-(3-pentylphenyl)propionic Acid] here?
A: 350.65 pg/mL

Q: Which IL12 (RAW264.7 cells [1]; compound concentration 0.50 mM) does the source give for `CCCCc1cccc(CCC(=O)[O-])c1.[Na+]` [Compound III, Sodium Salt of 3-(3-butylphenyl)propionic Acid] here?
A: 62.28 pg/mL

Q: For `CCC/C=C/c1cccc(CC(=O)[O-])c1.[Na+]` [Compound IV, Sodium Salt of E-(3-pent-1-enyl-phenyl)acetic Acid], which IL12 (RAW264.7 cells [1]; compound concentration 0.50 mM) is on record?
A: 19.31 pg/mL

Q: For `CCCCCc1cccc(CC(=O)[O-])c1O.[Na+]` [Compound IX, Sodium Salt of 2-(2-Hydroxy-3-pentylphenyl)acetic Acid], which IL12 (RAW264.7 cells [1]; compound concentration 0.1 mM) is on record?
A: 12.57 pg/mL

Q: Which IL12 (RAW264.7 cells [1]; compound concentration 0.50 mM) does the source give for `CCCC/C=C/c1cccc(CC(=O)[O-])c1.[Na+]` [Compound V, Sodium Salt of 2-(3-(Hex-1-enyl]phenyl)acetic Acid] here?
A: 52.5 pg/mL

Q: Which IL12 (RAW264.7 cells [1]; compound concentration 0.25 mM) does the source give for `CCCCCCc1cccc(CC(=O)[O-])c1.[Na+]` [Compound VI, Sodium Salt of 2-(3-Hexylphenyl)acetic Acid] here?
A: 58.87 pg/mL

Q: Which IL12 (RAW264.7 cells [1]; compound concentration 0.50 mM) does the source give for `CCCCCc1cc(O)cc(CC(=O)[O-])c1.[Na+]` [Compound VII, Sodium Salt of 3-hydroxy-5-pentylphenylacetic Acid] here?
A: 16.6 pg/mL

Q: For `CCCCCc1cc(CC(=O)[O-])ccc1O.[Na+]` [Compound VIII, Sodium Salt of 2-(4-Hydroxy-3-pentylphenyl)acetic Acid], which IL12 (RAW264.7 cells [1]; compound concentration 0.50 mM) is on record?
A: 20 pg/mL

Q: With `CCCCCc1cc(F)cc(CC(=O)[O-])c1.[Na+]` [Compound X, Sodium Salt of 2-(3-fluoro-5-pentylphenyl)acetic Acid] as the compound, how does the IL12 (RAW264.7 cells [1]; compound concentration 0.50 mM) read?
A: 80 pg/mL

Q: Which IL12 (RAW264.7 cells [1]; compound concentration 0.25 mM) does the source give for `CCCCCc1cccc(CC(=O)[O-])c1F.[Na+]` [Compound XI, Sodium Salt of 2-(2-Fluoro-3-pentylphenyl)acetic Acid] here?
A: 15 pg/mL

Q: For `CCCCCc1cc(CC(=O)[O-])ccc1F.[Na+]` [Compound XII, Sodium Salt of 2-(4-Fluoro-3-pentylphenyl)acetic Acid], which IL12 (RAW264.7 cells [1]; compound concentration 0.50 mM) is on record?
A: 419.6 pg/mL

Q: For `CCCCCc1cc(CCCCC)cc(CC(=O)[O-])c1.[Na+]` [Compound XIV, Sodium 2-[3,5-Dipentylphenyl] Acetate], which serum adiponectin level (db/db mice) is on record?
A: increased the level of adiponectin to the level of the sham animals

Q: And the melting point?
A: 225 to 230 °C

Q: Which IL12 (RAW264.7 cells [1]; compound concentration 0.005 mM) does the source give for `CCCCCc1cc(CCCCC)c(O)c(CC(=O)[O-])c1.[Na+]` [Compound XVI, Sodium Salt of 2-(2-Hydroxy-3,5-dipentylphenyl)acetic Acid] here?
A: 15 pg/mL

Q: For `CCCCCc1cc(CCCCC)cc(CCC(=O)[O-])c1.[Na+]` [Compound XXIV, Sodium 3-[3,5-Dipentylphenyl]propanoate], which IL12 (RAW264.7 cells [1]; compound concentration 0.0025 mM) is on record?
A: 79.9 pg/mL

Q: For `CCCCCCCCCC(=O)O` [capric acid], which IL-12 production (RAW264.7 cells [4]; literature (Wang et al. 2006)) is on record?
A: increase in IL-12 production; also recorded: increases the production of IL-12

Q: What about the “phosphatase (TRAP)-positive cells” value (RAW264.7 cells [4]; literature (Wang et al. 2006)) of the same compound?
A: reduction of phosphatase (TRAP)-positive cells

Q: What about the “LPS-upregulated iNOS mRNA levels and nitric oxide (NO) production” value (RAW264.7 cells [4]; literature) of the same compound?
A: inhibited them

Q: And the “monocyte chemoattractant protein-1 (MCP-1) mRNA expression” value (RAW264.7 cells [4]; literature)?
A: inhibited monocyte chemoattractant protein-1 (MCP-1) mRNA expression

Q: And the “osteoclast formation, TRAP staining” value (RAW264.7 cells [3])?
A: no TRAP cells are observable
